Reference: US20250295725A1, “BONE TARGETED TREATMENT IN OSTEOGENESIS IMPERFECTA” (PURDUE RESEARCH FOUNDATION, priority 2022, published 2025)

Legend:
Assay type in all cases: in vivo
[1] = tested on: Colla2^oim mouse model of type 3(−/−) OI; assay: Fracture callus mineralization by MicroCT after stabilized midshaft femur fracture (osteotomy), type 3 OI mice
Method: In some instances, ability of an anabolic linked to a hydroxyapatite ligand to accelerate the repair of fractures in a Type 3 OI disease state was analyzed. Type 3 is the most severe non-lethal form of OI and experiences the most fractures in the human population. In some instances, Type 3 was modeled in a Colla2oim (−/−) mouse (e.g., which is a well-established model of OI Type 3), such as described elsewhere herein (e.g., see the examples). In some instances, the compound is distally administered and accumulates locally at a fracture site.
After reaching skeletal maturity, 12 weeks old female mice underwent a stabilized midshaft femur fracture model via an osteotomy. Type 3 OI mice were treated twice a week 6 weeks post fracture. Fracture callus mineralization was evaluated via quantification of high resolution MicroCT(scanco) images of the fracture callus.
(§1) After reaching skeletal maturity, 12 weeks old female mice underwent a stabilized midshaft femur fracture model via an osteotomy. Type 1 and Type 3 OI mice were treated twice a week for 5 weeks and 6 weeks respectively post fracture. Fracture callus mineralization was evaluated via quantification of high resolution MicroCT(scanco) images of the fracture callus.
(§2) In vivo experiments were conducted in heterozygous and homozygous Colla2^oim (Type 1 OI (+/−) and Type 3 OI (−/−)) mice of both genders. After reaching skeletal maturity, 12 weeks old female and/or male mice underwent a stabilized midshaft femur fracture model via an osteotomy. OI mice were subcutaneously treated (with saline control or a compound provided herein, such as Ab46-D-Glu20) twice a week 5 or 6 weeks post fracture. Following a 5-week study in heterozygous mice and 6-week in homozygous mice, fracture callus mineralization/densities were measured using quantification of high resolution MicroCT(scanco) images of the fracture callus.

[2] = tested on: Colla2^oim mouse model of type 3(−/−) OI; assay: 4-point bend to failure of the fractured femurs, type 3 OI mice
Method: (§3) After reaching skeletal maturity, 12 weeks old female mice underwent a stabilized midshaft femur fracture model via an osteotomy. Type 3 OI mice were treated twice a week for 6 weeks post fracture. Fracture strength was evaluated via 4-point bend to failure of the fractured femurs. The max load evaluates the max load the femur withstood prior to fracture in the biomechanical evaluation. The contralateral untreated femurs are presented here to show the restoration to previous non-fracture strength during treatment.
as §3, with “Work to fracture” for “The max load”, “total amount of energy” for “max load”, “adsorbed” for “withstood”
(§4) FIGS. 13 and 14 show the impact of treatment with Compound 1 on bone fracture stiffness in a Colla2^oim mouse model of type 3(−/−) and type 1(−/+) osteogenesis Imperfecta. After reaching skeletal maturity, 12 weeks old female mice underwent a stabilized midshaft femur fracture model via an osteotomy and type 1 and Type 3 OI mice were treated twice a week for 5 and 6 weeks respectively post fracture. Fracture strength was evaluated via 4-point bend to failure of the fractured femurs. Modulus evaluates the stiffness of the femur during the biomechanical evaluation. A low stiffness is indicative of brittleness that leads to leads to future fractures. The improvement in stiffness that occurred in the fracture callus are indicative of a healthier bone that is less brittle and will be less likely to fracture in the future. In some instances, low bone stiffness is indicative of brittleness in the bone, such as being associated with higher risk of fracture. In some instances, higher bone stiffness is indicative of healthier bone, such as bone that is less brittle and less prone to fracture. In some instances, the majority of the compound localized into the fracture callus (e.g., due to the large amounts of exposed hydroxyapatite at the fracture site and that DE20 can bind to hydroxyapatite via chelation of the calcium component). In some instances, the elevated sites of resorption throughout the OI type 3 skeleton also had some moderate accumulation (e.g., which was responsible for the non-fracture skeletal improvements observed in FIGS. 13 and 14).
(§5) After reaching skeletal maturity, 12 weeks old female mice underwent a stabilized midshaft femur fracture model via an osteotomy. Type 1 and Type 3 OI mice were treated twice a week for 5 weeks and 6 weeks respectively post fracture. Fracture strength was evaluated via 4-point bend to failure of the fractured femurs. The contralateral untreated femurs are presented here to show the restoration to previous non-fracture strength during treatment. […] Further, Compound 1 increases the max load (in Newtons) it takes a bone to fracture in mice with Type 1 OI by approximately 70% (as compared to bone with saline).

[3] = tested on: Colla2^oim mouse model of type 1(+/−) OI; assay: 4-point bend to failure of the non-fractured contralateral femurs, type 1 OI mice
Method: FIGS. 11 and 12 show the impact of treatment with Compound 1 on bone strength in a Colla2^0im mouse model of type!(+/−) OI. 12 week old female mice underwent a stabilized midshaft femur fracture model via an osteotomy. Type 1 OI mice were treated twice a week for 5 weeks post fracture. Bone strength was evaluated via 4-point bend to failure of the non-fractured contralateral femurs. The max load (FIG. 11) evaluates the max load the femur withstood prior to fracture in the biomechanical evaluation. Work to fracture (FIG. 12) evaluates the total amount of energy the femur adsorbed prior to fracture in the biomechanical evaluation. Bone targeted anabolic treatment dramatically improves bone strength in the contralateral femurs.
FIGS. 19 and 20 show the impact of treatment with Compound 3 on bone strength in a Colla2^oim mouse model of type 1(+/−) OI. 12 week old female mice underwent a stabilized midshaft femur fracture model via an osteotomy. Type 1 OI mice were treated daily subcutaneously for 5 weeks post fracture. Bone strength was evaluated via 4-point bend to failure of the non-fractured contralateral femurs. The max load (FIG. 19) evaluates the max load the femur withstood prior to fracture in the biomechanical evaluation. Work to fracture (FIG. 20) evaluates the total amount of energy the femur adsorbed prior to fracture in the biomechanical evaluation. Bone targeted anabolic treatment dramatically improves bone strength in the contralateral femurs.

[4] = tested on: Colla2^oim mouse model of type 1(+/−) OI; assay: 4-point bend to failure of the fractured femurs, 6 week old pediatric type 1 OI mice; details: 6 week old pediatric mice
Method: In some instances, OI affects children from birth and many of the fractures in an individual's life with OI occurring during adolescence. In some embodiments, the individual has pediatric OI. FIGS. 7 and 8 show the impact of treatment with Compound 1 on bone fracture strength in a Colla2^oim mouse model of type 1(+/−) OI. 6 week old pediatric Mice underwent a stabilized midshaft femur fracture model via an osteotomy. Type 1 OI mice were treated twice a week for 4 weeks post fracture. Fracture strength was evaluated via 4-point bend to failure of the fractured femurs. The max load (FIG. 7) evaluates the max load the femur withstood prior to fracture in the biomechanical evaluation. Work to fracture (FIG. 8) evaluates the total amount of energy the femur adsorbed prior to fracture in the biomechanical evaluation.

[5] = tested on: Colla2^oim mouse model of type 1(+/−) OI; assay: 4-point bend to failure of the fractured femurs, 12 week old type 1 OI mice; details: for increase in max load it takes a bone to fracture as compared to control: fractured femurs, daily subcutaneously 38 nmol/kg/d for 5 weeks, Type 1 OI mice treated (FIG. 18)
Method: as §4
as §5, with “saline). […]” for “saline).”

[6] = tested on: Colla2^oim mouse model of type 1(+/−) OI; assay: Fracture callus mineralization by MicroCT after stabilized midshaft femur fracture (osteotomy), type 1 OI mice
Method: as §1
After reaching skeletal maturity, 12 weeks old mice underwent a stabilized midshaft femur fracture model via an osteotomy. Type 1 OI mice were treated daily subcutaneously for 5 weeks post fracture. Fracture callus mineralization was evaluated via quantification of high resolution MicroCT(scanco) images of the fracture callus. In some instances, mice were dosed (daily) with 38 nmol/kg/d of Compound 4, Compound 3, or PBS vehicle control.
as §1, with “maturity” for “maturity,”, “old” for “old female”, “1” for “1 and Type 3”, “daily subcutaneously” for “twice a week”, “weeks” for “weeks and 6 weeks respectively”
as §2

[7] = 12 weeks old mice, daily subcutaneously 38 nmol/kg/d for 5 weeks (FIG. 17)

Substance: AVSEHQLLHDKGKSIQDLRRRELLEKLLxKLHTAEIRATSEVSPNSeeeeeeeeeeeeeeeeeeee [Compound 1]
- radiographic healing over the control ([1]; Colla2oim mouse model): significant improvement
- improved fracture callus mineralization as compared to the saline control ([1]; Type 3 OI, 12 weeks old female mice, treated twice a week 6 weeks post fracture (FIG. 1, FIG. 4)): approximately 100%
- median microCT images of fractured bones vs saline control ([1]; fractured bones of FIGS. 4 and 5 (Type 1 and Type 3 OI), composite of 20 microCT slices (FIG. 6)): healthier and denser bone
- increase in bone volume fraction over the saline groups ([1]; mice administered compound vs saline groups): > 85%
- force required to refracture bone ([2]; Colla2oim mouse model, mechanical testing): dramatically higher force
- more stiff (modulus) than fractured bone of control mice ([2]; Type 3 OI, fractured bone, twice a week 6 weeks (FIG. 13)): approximately 100%
- increase in max load it takes a bone to fracture as compared to saline bone ([2]; Type 3 OI, fractured femur, twice a week 6 weeks (FIG. 2, FIG. 5)): approximately 300%
- increase in work to fracture as compared to bone repaired with saline ([2]; Type 3 OI, fractured femur, twice a week 6 weeks (FIG. 3)): approximately 150%
- more stiff (modulus) than non-fractured bone of control mice ([2]; Type 3 OI, treated fractured bone vs non-fractured control bone (FIG. 13)): approximately 50%
- increase in work to fracture as compared to non-fractured bone ([2]; Type 3 OI, treated fractured femur vs non-fractured bone (FIG. 3)): approximately 70%
- more max load to fracture, non-fractured bone vs control mice ([3]; non-fractured contralateral femurs, twice a week 5 weeks (FIG. 11)): approximately 30%
- higher work to fracture, non-fractured bone vs control mice ([3]; non-fractured contralateral femurs, twice a week 5 weeks (FIG. 12)): approximately 40%
- higher max load to fracture than saline control ([4]; twice a week 4 weeks (FIG. 7)): approximately 160%
- higher work to fracture than saline control ([4]; twice a week 4 weeks (FIG. 8)): approximately 80%
- more max load to fracture than fractured bone in control mice ([5]; Type 1 OI, 12 week old female mice, twice a week 5 weeks (FIG. 10)): 80%
- more max load to fracture than fractured bone in control mice ([5]; Type 1 OI, 12 week old male mice, twice a week 5 weeks (FIG. 9)): approximately 70%
- increase in max load it takes a bone to fracture as compared to bone with saline ([5]; Type 1 OI, 12 weeks old female mice, twice a week 5 weeks (FIG. 5)): approximately 70%
- more stiff (modulus) than fractured bone of control mice ([5]; Type 1 OI, fractured bone, twice a week 5 weeks (FIG. 14)): approximately 60%
- differential response between sexes (fracture strength) ([5]; Type 1 OI, male vs female mice, twice a week 5 weeks (FIGS. 9, 10)): No differential response between sexes
- more stiff (modulus) than unfractured bone of control mice ([5]; Type 1 OI, treated fractured bone vs unfractured control bone (FIG. 14)): approximately 10%
- improved fracture callus mineralization as compared to the saline control ([6]; 12 weeks old female mice, treated twice a week 5 weeks post fracture (FIG. 4)): approximately 50%

Substance: eeeeeeeeee(AEEA)4 DLTIDDSYWYRI (EEEEEEEEEEXDLTIDDSYWYRI; D-Glu targeting ligand, 4 AEEA spacer; SITE 1..10 D-glutamic acid; SITE 11 2,2-amino ethoxy ethoxy acetic acid; REPEAT 11 repeated 4 times) [Compound 4, Ln2_P3 motif with N-terminally-attached 4-mini-PEG spacer and D-glutamic acid targeting ligand]
- increase in max load it takes a bone to fracture as compared to control [5]: approximately 200%
- improved fracture callus mineralization as compared to the saline control [6, 7]: approximately 200%

Substance: AVSEHQLLHDKGKSIQDLIUGTFFLHHLIAEIHTAEnLATSEVSPNSeeeeeeeeeeeeeeeeeeee [Compound 3]
- more max load to fracture than bone in control mice ([3]; contralateral femurs, daily subcutaneously 5 weeks (FIG. 19)): approximately 10%
- higher work to fracture, non-fractured bone vs control mice ([3]; non-fractured contralateral femurs, daily subcutaneously 5 weeks (FIG. 20)): approximately 40%
- increase in max load it takes a bone to fracture as compared to control [5]: approximately 100%
- improved fracture callus mineralization as compared to the saline control [6, 7]: approximately 300%
